Experimental data as given in publication PMC6155683, “Pharmacokinetics Studies of 12 Alkaloids in Rat Plasma after Oral Administration of Zuojin and Fan-Zuojin Formulas” (Molecules : A Journal of Synthetic Chemistry and Natural …, 2017).
Read-outs that look alike come from different tables or passages of the source. One block for each molecule: values may come before it.

What was measured:
Caco-2 cell monolayer = details: cited from earlier work
[1] = PK study of the 12 alkaloids in rat plasma after oral administration of ZJ and FZJ extract (LC–MS/MS); type: in vivo
Experimental: The time schedule included 15 time-points and six rats were sampled at each time-point. All the rats were orally administered with ZJ extract (suspended in water) at a dose of 3.38 g/kg body weight (dosages of the 12 alkaloids were shown in Table S4), equivalent to crude drug dose of 12 g/kg body weight. Blood samples were collected from the suborbital vein of the rats at 10, 20, 30, 60, 90, 120, 180, 240, 300, 330, 360, 480, 720, 1440, 2160 min after administration, and centrifuged immediately at 5000 rpm for 10 min. The plasma samples were stored at −20 °C until analysis.
Similarly, the time schedule of other rats included 15 time-points and six rats were orally administered with FZJ extract at a dose of 3.76 g/kg body weight (also equivalent to crude drug dose of 12 g/kg body weight, Table S4). Blood samples were collected and treated as mentioned above in the PK study of ZJ extract.
PK parameters of the 12 alkaloids including AUC0→t, AUC0→∞, mean retention time (MRT0→t, MRT0→∞), and elimination half-life (t1/2) were calculated with non-compartmental method by DAS 2.0 software (Mathematical Pharmacology Professional Committee of China, Shanghai, China). Maximum plasma drug concentration (Cmax) and time to reach the maximum plasma drug concentration (Tmax) were observed directly from the detected C–T data. The results were expressed as arithmetic mean ± standard deviation (SD).

[2] = Stability of analytes in rat plasma under storage conditions; type: physicochemical; details: n = 6; for Stability RE, 3 freeze-thaw cycles / Stability RE, 30 days at −20 °C: rat plasma; for Stability RE, processed samples' stability: room temperature 24 h
Experimental: The stabilities of analytes in plasma were assessed by analyzing the QC samples at three concentration levels under the following storage conditions: after three freeze (−20 °C)-thaw (room temperature) cycles; stored at −20 °C for 30 days, and comparing the results with those of freshly prepared QC samples. Stabilities of the processed samples at room temperature for 24 h were also assessed.

P-gp = details: not told; cited from earlier work
[3] = jejunum vs ileum and colon; cited from earlier work
[4] = Dose modified systemic exposure (AUC0→∞/D, Cmax/D)
Experimental: Because the alkaloids content in ZJ and FZJ were no longer linear with the proportion of CR and EF after extraction process, AUC0→∞/D (ratio of AUC0→∞ and dose) and Cmax/D (ratio of Cmax and dose) were calculated to estimate the dose modified systemic exposure levels of the 12 alkaloids (Table 3). […] Physicochemical properties of these alkaloids had been calculated in silico to predict their human colon adenocarcinoma cell (Caco-2) permeability according to the three-property based rule (3PRule). Polar surface area (PSA), logarithm of the n-octanol/water distribution coefficient (LogD), molecular weight (MW), hydrogen bond donors (HBD), hydrogen bond acceptors (HBA), number of free rotatable bonds (NRB) and molar solubility (S) of the alkaloids were retrieved from SciFinder® (American Chemical Society).

[5] = Two-compartment model fitting of C–T curves (DAS 2.0); type: in vivo, rat
Excerpt: Double peaks in C–T curves were observed repeatedly in the PK study of ZJ and related TCM prescriptions, but explanations to the phenomenon were still ambiguous. Generally, possible reasons for the double peak phenomenon could be summarized as follows: (a) enterohepatic circulation; […] (c) irregular pattern of gastric emptying. […] Moreover, Tmax of the alkaloids after administration of ZJ extract were deferred from that of FZJ administration. […] It probably play a major role in the double peak phenomenon, since the GI motility can affect the drug absorption.

- Csec (drug concentration of the secondary peak in C–T curve) ([1]; rat, in vivo, po): 117.29 ± 45.45 ng/mL
- Tsec (time of the secondary peak in C–T curve) ([1]; rat, in vivo, po): 90 min
- AUC(0-inf) ([1]; rat, in vivo, po, 3.38 g/kg): 537 ± 55 ng·h/mL
- AUC(0-t) ([1]; rat, in vivo, po, 3.38 g/kg): 532 ± 57.8 ng·h/mL
- Cmax ([1]; rat, in vivo, po, 3.38 g/kg): 155 ± 27.9 ng/mL
- MRT inf ([1]; rat, in vivo, po, 3.38 g/kg): 4.71 h
- MRT last ([1]; rat, in vivo, po, 3.38 g/kg): 4.34 h
- Tmax ([1]; rat, in vivo, po, 3.38 g/kg): 4 h
- half-life ([1]; rat, in vivo, po, 3.38 g/kg): 3.21 ± 2.27 h
- AUC(0-inf) ([1]; rat, in vivo, po, 3.76 g/kg): 286 ± 24.1 ng·h/mL
- AUC(0-t) ([1]; rat, in vivo, po, 3.76 g/kg): 275 ± 23.2 ng·h/mL
- Cmax ([1]; rat, in vivo, po, 3.76 g/kg): 85.3 ± 13.4 ng/mL
- MRT inf ([1]; rat, in vivo, po, 3.76 g/kg): 5.96 h
- MRT last ([1]; rat, in vivo, po, 3.76 g/kg): 4.66 h
- Tmax ([1]; rat, in vivo, po, 3.76 g/kg): 1.5 h
- half-life ([1]; rat, in vivo, po, 3.76 g/kg): 5.03 ± 2.87 h
- Stability RE, 3 freeze-thaw cycles ([2]; high QC concentration): 5.86%
- Stability RE, 30 days at −20 °C ([2]; high QC concentration): 4.85%
- Stability RE, 3 freeze-thaw cycles ([2]; low QC concentration): 4.36%
- Stability RE, 30 days at −20 °C ([2]; low QC concentration): −6.34%
- Stability RE, 3 freeze-thaw cycles ([2]; medium QC concentration): 14.45%
- Stability RE, 30 days at −20 °C ([2]; medium QC concentration): −1.12%
- Stability RE, processed samples' stability ([2]; high QC concentration): −1.09%
- Stability RE, processed samples' stability ([2]; low QC concentration): −0.76%
- Stability RE, processed samples' stability ([2]; medium QC concentration): 4.78%
SMILES: C[n+]1c2n(c(=O)c3ccccc31)CCc1c-2[nH]c2ccccc12 [dehydroevodiamine]
- Papp (Caco-2 cell monolayer): 12.6 ×10⁻⁶ cm/s

- AUC(0-inf) ([1]; rat, in vivo, po, 3.38 g/kg): 96.6 ± 33.2 ng·h/mL
- AUC(0-t) ([1]; rat, in vivo, po, 3.38 g/kg): 88.3 ± 24.9 ng·h/mL
- Cmax ([1]; rat, in vivo, po, 3.38 g/kg): 34.1 ± 19.2 ng/mL
- MRT inf ([1]; rat, in vivo, po, 3.38 g/kg): 8.75 h
- MRT last ([1]; rat, in vivo, po, 3.38 g/kg): 6.74 h
- Tmax ([1]; rat, in vivo, po, 3.38 g/kg): 1.5 h
- half-life ([1]; rat, in vivo, po, 3.38 g/kg): 5.65 ± 2.41 h
- AUC(0-inf) ([1]; rat, in vivo, po, 3.76 g/kg): 18.9 ± 5.5 ng·h/mL
- AUC(0-t) ([1]; rat, in vivo, po, 3.76 g/kg): 18.2 ± 4.98 ng·h/mL
- Cmax ([1]; rat, in vivo, po, 3.76 g/kg): 9.74 ± 3.53 ng/mL
- MRT inf ([1]; rat, in vivo, po, 3.76 g/kg): 4.49 h
- MRT last ([1]; rat, in vivo, po, 3.76 g/kg): 3.86 h
- Tmax ([1]; rat, in vivo, po, 3.76 g/kg): 3 h
- half-life ([1]; rat, in vivo, po, 3.76 g/kg): 2.51 ± 1.73 h
- Stability RE, 3 freeze-thaw cycles ([2]; high QC concentration): −12.89%
- Stability RE, 30 days at −20 °C ([2]; high QC concentration): −12.35%
- Stability RE, 3 freeze-thaw cycles ([2]; low QC concentration): −14.23%
- Stability RE, 30 days at −20 °C ([2]; low QC concentration): −17.74%
- Stability RE, 3 freeze-thaw cycles ([2]; medium QC concentration): −7.2%
- Stability RE, 30 days at −20 °C ([2]; medium QC concentration): −13.85%
- Stability RE, processed samples' stability ([2]; high QC concentration): −12.47%
- Stability RE, processed samples' stability ([2]; low QC concentration): −9.27%
- Stability RE, processed samples' stability ([2]; medium QC concentration): −2.85%
SMILES: COc1cc2c(cc1OC)-c1cc3ccc(OC)c(OC)c3c[n+]1CC2 [palmatine]
- P-gp substrate (P-gp): P-gp substrates
- absorption rate constant (Ka) compared between intestinal sites [3]: greater than that at ileum and colon

- AUC0→∞/D (ratio of AUC0→∞ and dose) ([4]; oral FZJ extract): 278.39
- Cmax/D (ratio of Cmax and dose) ([4]; oral FZJ extract): 59.61
- AUC0→∞/D (ratio of AUC0→∞ and dose) ([4]; oral ZJ extract): 172.57
- Cmax/D (ratio of Cmax and dose) ([4]; oral ZJ extract): 46.62
- AUC(0-t) ([1]; 3.38 g/kg, rat plasma, oral ZJ extract, mean ± SD, n = 6, read-out: AUC0→t): 11.5 ± 1.4 ng·h/mL
- AUC(0-inf) ([1]; 3.38 g/kg, rat plasma, oral ZJ extract, mean ± SD, n = 6, read-out: AUC0→∞): 12.8 ± 1.43 ng·h/mL
- Cmax ([1]; 3.38 g/kg, rat plasma, oral ZJ extract, mean ± SD, n = 6, read-out: Cmax): 3.45 ± 1.73 ng/mL
- MRT last ([1]; 3.38 g/kg, rat plasma, oral ZJ extract, mean ± SD, n = 6, read-out: MRT0→t (converted)): 3.86 h
- MRT inf ([1]; 3.38 g/kg, rat plasma, oral ZJ extract, mean ± SD, n = 6, read-out: MRT0→∞ (converted)): 5.22 h
- half-life ([1]; 3.38 g/kg, rat plasma, oral ZJ extract, mean ± SD, n = 6, read-out: t1/2): 3.64 ± 1.5 h
- Tmax ([1]; 3.38 g/kg, rat plasma, oral ZJ extract, read-out: Tmax (converted)): 1.5 h
- AUC(0-t) ([1]; 3.76 g/kg, rat plasma, oral FZJ extract, mean ± SD, n = 6, read-out: AUC0→t): 48.2 ± 8.86 ng·h/mL
- AUC(0-inf) ([1]; 3.76 g/kg, rat plasma, oral FZJ extract, mean ± SD, n = 6, read-out: AUC0→∞): 50.1 ± 8.81 ng·h/mL
- Cmax ([1]; 3.76 g/kg, rat plasma, oral FZJ extract, mean ± SD, n = 6, read-out: Cmax): 10.7 ± 4.43 ng/mL
- MRT last ([1]; 3.76 g/kg, rat plasma, oral FZJ extract, mean ± SD, n = 6, read-out: MRT0→t (converted)): 5.77 h
- MRT inf ([1]; 3.76 g/kg, rat plasma, oral FZJ extract, mean ± SD, n = 6, read-out: MRT0→∞ (converted)): 6.89 h
- half-life ([1]; 3.76 g/kg, rat plasma, oral FZJ extract, mean ± SD, n = 6, read-out: t1/2): 4.92 ± 1.83 h
- Tmax ([1]; 3.76 g/kg, rat plasma, oral FZJ extract, read-out: Tmax (converted)): 0.5 h
- Tsec (time of the secondary peak in C–T curve) ([1]; rat plasma, oral ZJ extract): 20 min
- Csec (drug concentration of the secondary peak in C–T curve) ([1]; rat plasma, oral ZJ extract, mean ± SD, n = 6): 2.55 ± 0.38 ng/mL
- AIC (Akaike's information criterion method), two-compartment model fitting ([5]; oral FZJ extract): 66.844 ± 7.076
- r^2 (correlation coefficient method), two-compartment model fitting ([5]; oral FZJ extract): 0.519 ± 0.407
- AIC (Akaike's information criterion method), two-compartment model fitting ([5]; oral ZJ extract): 35.057 ± 11.851
- r^2 (correlation coefficient method), two-compartment model fitting ([5]; oral ZJ extract): 0.544 ± 0.140
- Stability RE, 3 freeze-thaw cycles ([2]; high QC concentration): 0.37%
- Stability RE, 30 days at −20 °C ([2]; high QC concentration): −1.38%
- Stability RE, 3 freeze-thaw cycles ([2]; low QC concentration): 18.91%
- Stability RE, 30 days at −20 °C ([2]; low QC concentration): 14.46%
- Stability RE, 3 freeze-thaw cycles ([2]; medium QC concentration): −14.69%
- Stability RE, 30 days at −20 °C ([2]; medium QC concentration): −10.79%
- Stability RE, processed samples' stability ([2]; high QC concentration): −10.58%
- Stability RE, processed samples' stability ([2]; low QC concentration): 15.1%
- Stability RE, processed samples' stability ([2]; medium QC concentration): −14.07%
SMILES: Cn1c(=O)n(CCC2(O)C(=O)Nc3ccccc32)c(=O)c2ccccc21 (stereo not drawn) [wuchuyuamide-I]
